Read-outs that look alike come from different tables or passages of the source.
Assays:
human PD-1/PD-L1 binding = target: T1, human PD-1/PD-L1 binding (Homo sapiens, UniProt Q9NZQ7); test: Inhibition of human PD-1/PD-L1 binding (TR-FRET/HTRF); settings: TR-FRET, PD-L1-His and PD-1-Fc; read-out: PD-1/PD-L1 binding IC50
T1 construct: PD-L1-His protein (19 to 238 amino acids) (Abcam #ab167713); purchased Abcam (PD-L1-His); R&D (PD-1-Fc) ab167713; 1086-PD
Summary of the method: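 PD-L1-His (aa 19–238, diluted to 10 nM) and PD-1-Fc (aa 25–167, diluted to 20 nM) incubated with compounds (10 μM or 1 μM top, 3-fold, 11 doses) 60 min at room temperature, then anti-6HIS Eu cryptate/anti-human IgG-XL665 added for 3 h RT or overnight 4 °C. HTRF 665/620 nm ratio gave inhibition and IC50.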

[1] = target: T2, PD-L1 protein on the surface of MC38-hPDL1 tumor cells (Homo sapiens, UniProt Q9NZQ7); test: Induction of endocytosis of PD-L1 on the surface of tumor cells (flow cytometry); assay type: cell-based; settings: 16 hours incubation; for Emax: MC38-hPDL1 cells, read-out: MC38 maximum endocytosis rate; for IC50: inducing endocytosis of PD-L1, MC38-hPDL1 cells, read-out: MC38 IC50
T2 construct: expressed in transfected cells; host or cells: MC38-hPDL1 (mouse colon cancer cells)
T2 sequence (Q9NZQ7 19-290): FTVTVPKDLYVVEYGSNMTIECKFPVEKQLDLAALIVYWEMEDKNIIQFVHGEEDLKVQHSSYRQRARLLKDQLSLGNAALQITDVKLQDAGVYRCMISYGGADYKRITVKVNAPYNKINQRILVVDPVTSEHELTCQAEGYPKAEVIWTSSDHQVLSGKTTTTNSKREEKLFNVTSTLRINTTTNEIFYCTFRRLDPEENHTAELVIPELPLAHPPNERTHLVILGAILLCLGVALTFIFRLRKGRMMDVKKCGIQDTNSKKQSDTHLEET
Summary of the method: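 IC50 comes from nonlinear fits of endocytosis rate, calculated from the loss of surface PE-anti-CD274 flow signal relative to vehicle. Cells were MC38 mouse colon cancer cells engineered to express high human PD-L1. Compound exposure lasted 16 h at 37 °C, 5% CO2.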

human PD-L1 protein = target: T3, human PD-L1 protein (Homo sapiens, UniProt Q9NZQ7); test: Thermal shift: melting temperature of PD-L1 protein; assay type: binding; settings: read-out: ΔTm (° C.)
T3 construct: purchased Acro Biosystems PD1-H5229
T3 sequence (Q9NZQ7 19-238 limits assumed): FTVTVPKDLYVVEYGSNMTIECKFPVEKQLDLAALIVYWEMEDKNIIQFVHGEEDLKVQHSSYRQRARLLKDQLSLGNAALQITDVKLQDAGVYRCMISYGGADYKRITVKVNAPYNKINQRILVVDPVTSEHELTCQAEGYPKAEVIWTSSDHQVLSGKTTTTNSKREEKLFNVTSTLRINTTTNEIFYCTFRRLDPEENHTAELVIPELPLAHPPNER
Procedure: Test Embodiment 4. Test of Combination of the Compounds of the Present Disclosure to Improve the Stability (Melting Temperature) of PD-L1 Protein Experimental purpose: To test the ability of compounds to enhance the stability of PD-L1 protein and increase the melting temperature of the protein. Experimental method: […] A solution containing […] HEPES, SYPRO Orange, and 150 mM NaCl was prepared as experimental buffer, and human PD-L1 protein was added at a final concentration of 2 μM. […] PCR tube was put into the PCR machine, and the melt curve function was selected to detect the melting temperature of PD-L1 protein in different treatment groups (heated from 25° C. to 95° C., 0.03° C./s). The experimental data file of the PCR instrument was imported into the thermal shift software to obtain the melting temperature (Tm) of each treatment group, and the Tm of the DMSO vehicle control group was subtracted to obtain the change value (ΔTm) of the melting temperature, as shown in the following table: […]

[2] = compound 10 μM, PD-L1 protein 2 μM, Tm minus DMSO vehicle control

T1 sequence (Q9NZQ7 19-238): as the sequence (Q9NZQ7 19-238 limits assumed) above

| SMILES | IC50 (human PD-1/PD-L1 binding) [nM] | Emax [1] [%] | ΔTm at 10 µM (human PD-L1 protein; [2]) [°C] | IC50 [1] [nM] | ΔTm at 10 µM (human PD-L1 protein) [°C] |
| --- | --- | --- | --- | --- | --- |
| COc1nc(-c2cccc(-c3cccc(NC(=O)c4nc5c(n4C)CCN(C)C5)c3Cl)c2Cl)ncc1CN[C@H]1CCOC[C@@H]1O (relative stereo) [Embodiment 228, N-(2,2′-Dichloro-3′-(5-(((trans-3-hydroxytetrahydro-2H-pyran-4-yl)amino)methyl)-4-methoxypyrimidin-2-yl)-[1,1′-biphenyl]-3-yl)-1,5-dimethyl-4,5,6,7-tetrahydro-1H-imidazo[4,5-c]pyridine-2-carboxamide] | 4.2 | 95 | 11.6 |  |  |
| CCn1c(C(=O)Nc2cccc(-c3cccc(-c4ccc(CN[C@H]5CCOC[C@@H]5O)c(OC)n4)c3Cl)c2Cl)nc2c1CCN(C)C2 (relative stereo) [Embodiment 235, N-(2,2′-Dichloro-3′-(5-(((trans-3-hydroxytetrahydro-2H-pyran-4-yl)amino)methyl)-6-methoxypyridin-2-yl)-[1,1′-biphenyl]-3-yl)-1-ethyl-5-methyl-4,5,6,7-tetrahydro-1H-imidazo[4,5-c]pyridine-2-carboxamide] | 6.4 | 93 | 11.3 |  |  |
| COc1cc(C(=O)Nc2cccc(-c3cccc(NC(=O)c4nc5c(n4C)CCN(C)C5)c3Cl)c2C)ncc1CN[C@@H]1CONC1=O [Embodiment 96, (R)—N-(2-Chloro-3′-(4-methoxy-5-(((3-carbonylisoxazolidin-4-yl)amino)methyl)picolinamido)-2′-methyl-[1,1′-biphenyl]-3-yl)-1,5-dimethyl-4,5,6,7-tetrahydro-1H-imidazo[4,5-c]pyridine-2-carboxamide] | 2.3 |  | 10.5 |  |  |
| COc1nc(-c2cccc(-c3cccc(NC(=O)c4nc5c(n4C)CCN(C)C5)c3Cl)c2Cl)ccc1CN1CC(OC(C)=O)C1 [Embodiment 122, 1-((6-(2,2′-Dichloro-3′-(1,5-dimethyl-4,5,6,7-tetrahydro-1H-imidazo[4,5-c]pyridine-2-carboxamido)-[1,1′-biphenyl]-3-yl)-2-methoxypyridin-3-yl)methyl)azetidin-3-yl acetate] | 3.5 | 97 | 14.8 | 0.4 |  |
| COc1nc(-c2cccc(-c3cccc(NC(=O)c4nc5c(n4C)CCN(C)C5)c3Cl)c2Cl)ccc1CN1CC2(CCCO2)C1 [Embodiment 125, N-(3′-(5-((5-Oxa-2-azaspiro[3.4]octan-2-yl)methyl)-6-methoxypyridin-2-yl)-2,2′-dichloro-[1,1′-biphenyl]-3-yl)-1,5-dimethyl-4,5,6,7-tetrahydro-1H-imidazo[4,5-c]pyridine-2-carboxamide] | 8.4 | 96 |  | 0.7 | 15.6 |
| COc1nc(-c2cccc(-c3cccc(NC(=O)c4nc5c(n4C)CCN(C)C5)c3Cl)c2Cl)ccc1CNC[C@@H](C)O [Embodiment 128, (R)—N-(2,2′-Dichloro-3′-(5-(((2-hydroxypropyl)amino)methyl)-6-methoxypyridin-2-yl)-[1,1′-biphenyl]-3-yl)-1,5-dimethyl-4,5,6,7-tetrahydro-1H-imidazo[4,5-c]pyridine-2-carboxamide] | 6.5 | 98 | 16.8 | 0.6 |  |
| COc1nc(-c2cccc(-c3cccc(NC(=O)c4nc5c(n4C)CCN(C)C5)c3Cl)c2Cl)ccc1CN1CC(O)C1 [Embodiment 129, N-(2,2′-Dichloro-3′-(5-((3-hydroxyazetidin-1-yl)methyl)-6-methoxypyridin-2-yl)-[1,1′-biphenyl]-3-yl)-1,5-dimethyl-4,5,6,7-tetrahydro-1H-imidazo[4,5-c]pyridine-2-carboxamide] | 2.9 | 95 |  | 1 | 13.9 |
| COc1nc(-c2cccc(-c3cccc(NC(=O)c4nc5c(n4C)CCN(C)C5)c3Cl)c2Cl)ccc1CN1CC(C)(O)C1 [Embodiment 130, N-(2,2′-Dichloro-3′-(5-((3-hydroxy-3-methylazetidin-1-yl)methyl)-6-methoxypyridin-2-yl)-[1,1′-biphenyl]-3-yl)-1,5-dimethyl-4,5,6,7-tetrahydro-1H-imidazo[4,5-c]pyridine-2-carboxamide] | 4.8 | 97 |  | 1.2 | 18.1 |
| COc1nc(-c2cccc(-c3cccc(NC(=O)c4nc5c(n4C)CCN(C)C5)c3Cl)c2Cl)ccc1CN1CC(C(=O)O)C1 [Embodiment 135, 1-((6-(2,2′-Dichloro-3′-(1,5-dimethyl-4,5,6,7-tetrahydro-1H-imidazo[4,5-c]pyridine-2-carboxamido)-[1,1′-biphenyl]-3-yl)-2-methoxypyridin-3-yl)methyl)azetidine-3-carboxylic Acid] | 1.2 | 98 | 16.7 | 3.1 |  |
| COc1nc(-c2cccc(-c3cccc(NC(=O)c4nc5c(n4C)CCN(C)C5)c3Cl)c2Cl)ccc1CNCC(=O)O [Embodiment 138, ((6-(2,2′-Dichloro-3′-(1,5-dimethyl-4,5,6,7-tetrahydro-1H-imidazo[4,5-c]pyridine-2-carboxamido)-[1,1′-biphenyl]-3-yl)-2-methoxypyridin-3-yl)methyl)glycine] | 0.8 | 97 | 14 | 4.5 |  |
| COc1cc(-c2cccc(-c3cccc(NC(=O)c4nc5c(n4C)CCN(C)C5)c3Cl)c2Cl)ccc1CNCCO [Embodiment 157, N-(2,2′-Dichloro-4″-(((2-hydroxyethyl)amino)methyl)-3″-methoxy-[1,1′:3′,1″-terphenyl]-3-yl)-1,5-dimethyl-4,5,6,7-tetrahydro-1H-imidazo[4,5-c]pyridine-2-carboxamide] | 4 | 95 | 11.2 | 1.5 |  |
| COc1cc(-c2cccc(-c3cccc(NC(=O)c4nc5c(n4C)CCN(C)C5)c3Cl)c2Cl)ccc1CNC[C@@H](C)O [Embodiment 158, (R)—N-(2,2′-Dichloro-4″-(((2-hydroxypropyl)amino)methyl)-3″-methoxy-[1,1′:3′,1″-terphenyl]-3-yl)-1,5-dimethyl-4,5,6,7-tetrahydro-1H-imidazo[4,5-c]pyridine-2-carboxamide] | 6.4 | 95 | 10.3 | 1.7 |  |
| COc1nc(-c2cccc(-c3cccc(NC(=O)c4nc5c(n4C)CCN(C)C5)c3Cl)c2Cl)ccc1CNCC1(C#N)CC1 [Embodiment 213, N-(2,2′-Dichloro-3′-(5-((((1-cyanocyclopropyl)methyl)amino)methyl)-6-methoxypyridin-2-yl)-[1,1′-biphenyl]-3-yl)-1,5-dimethyl-4,5,6,7-tetrahydro-1H-imidazo[4,5-c]pyridine-2-carboxamide] |  | 96 | 14.5 | 4.1 |  |
| CCn1c(C(=O)Nc2cccc(-c3cccc(-c4ccc(CNC5COC5)c(OC)n4)c3Cl)c2Cl)nc2c1CCN(C)C2 [Embodiment 236, N-(2,2′-Dichloro-3′-(6-methoxy-5-((oxetan-3-ylamino)methyl)pyridin-2-yl)-[1,1′-biphenyl]-3-yl)-1-ethyl-5-methyl-4,5,6,7-tetrahydro-1H-imidazo[4,5-c]pyridine-2-carboxamide] |  | 90 | 10.6 |  |  |

From US20230105212A1, “BIPHENYL DERIVATIVE INHIBITOR, PREPARATION METHOD THEREFOR AND USE THEREOF” (SHANGHAI HANSOH BIOMEDICAL CO., LTD., priority 2020, published 2023)
